Read-outs that look alike come from different tables or passages of the source. Where a SMILES comes first, the peptide text is derived from it.
Columns and labels:
E. coli MC1061 = assay: Spot dilution assay of E. coli producing the ubonodin variant from pUboABC; type: cell-based; conditions: variant in pUboABC backbone in E. coli MC1061, induction with 100 μM IPTG, ten-fold serial dilutions, biological duplicates
Procedure: Cultures of E. coli MC1061 transformed with the appropriate plasmids were grown. Aliquots of the cultures were sampled prior to and after induction with 100 μM IPTG, and 10-fold serial dilutions were plated. […]
All cloning was conducted by PCR amplification (using Q5 polymerase), restriction digestion, ligation, (using T4 DNA ligase), and transformation into chemically competent E. coli XL1-Blue. All cloning with a pUboABC backbone was done by plating transformation mixt ures onto Lysogeny Broth (LB) plates supplemented with 100 μg/mL ampicillin and 0.2% w/v glucose, and colonies were inoculated into LB media supplemented with 100 μ g/mL ampicillin and 0.2% w/v glucose to suppress any leaky expression. Cloning for all other plasmid constructs was done by plating transformation mixtures onto Lysogeny Broth (LB) plates supplemented with 100 μ g/ m L ampicillin, and colonies were inoculated into LB media supplemented with 100 μ g/ m L ampicillin.
Plasmids were extracted using Qiagen QIAprep Spin Miniprep Kit and sequence verified using Sanger sequencing. All primer sequences are listed in Table S7, and all plasmid constructs are […]
pUboABC was cloned by amplifying pWC99 with pQE-80 NheI For and pAT8 Nco I Rev.
The amplicon was ligated into pWC99 digested with Nhe I and Nco I. pUboBC was cloned by digesting pUboABC with Nh e I and Nco I and ligating that fragment into pQE-80 digested with Nhe I and Nco I. pUboABC S5H I16P and pUboABCD S5H I16P were cloned with overlap PCR using pWC99 as the template. One fragment was amplified with pQE-80 EcoRI For and S5H I16P Rev v2 and the second fragment was amplified with S5H I16P For v2 and pQE-80 HindII I Rev. […]
All remaining plasmid constructs were cloned with overlap PCR. One fragment was amplified with Xho I For Lib and a mutagenic reverse primer and the second fragment was amplified with NheI Rev Lib and a mutagenic forward primer. The templates and mutagenic […]
The fragments were joined with a second round of PCR and amplified with XhoI For Lib and NheI Rev Lib. Amplicons were ligated into the appropriate plasmid backbone digested with Xho I and Nhe I-HF. The plasmid backbones […]
The appropriate plasmid was transformed into electrocompetent E. coli MC1061, plated onto LB plates supplemented with 100 μ g/ m L ampicillin and 0.2% w/v glucose, and incubated at 30 °C for 16 hours. Colonies were inoculated into LB media supplemented with 100 μ g/ m L ampicillin and 0.2% w/v glucose and grown at 37 °C for 16 hours. These cultures were sub-cultured to an OD600 of 0.02 in 50 mL of LB media supplemented with 100 μg/mL ampicillin in a 250 mL flask. Once the OD600 reached 0.3, a 1 mL aliquot was sampled immediately prior to inducing the cultures with 100 μM isopropyl β-D-1-thiogalactopyranoside (IPTG). The aliquot was washed with Phosphate-Buffered Saline (PBS) two times and ten-fold serial dilutions were spotted onto LB plates supplemented with 100 μ g/ m L ampicillin and 0.2% w/v glucose. For each following timepoint, a 1 mL sample of each culture was withdrawn, washed with PBS two times, and ten- […]
fold serial dilutions were spotted onto LB plates supplemented with 100 μ g/m L ampicillin and 0.2% w/v glucose. Plates were incubated for 16 hours at 37 °C before imaging. […]
250 mL flask. Ten-fold serial dilutions of the culture were plated onto LB plates supplemented with 100 μ g/ m L ampicillin and 0.2% w/v glucose. The cultures were then grown at 37 °C, and once the OD600 reached 0.3, a 1 mL sample of the culture was withdrawn immediately before the cultures were induced with 10 μM or 100 μM IPTG and returned to grow longer. […]
All plates were incubated at 37 °C for 16 hours, after which the number of colonies was counted. Three biological replicates of this assay were done.
Co-Culture of E. coli MC1061 pUboABC and E. coli MC1061 pUboBC pUboABC (0.9 ng) and pUboBC (0.1 ng) were transformed into electrocompetent E. coli MC1061 with a one- hour outgrowth at 37 °C in LB media supplemented with 0.2% w/v glucose. […]

B. cenocepacia AU0756 = system: B. cenocepacia AU0756
Procedure: We proceeded to test the antimicrobial activity of the selected variants against two clinical isolates of the Bcc, B. cenocepacia AU0756 and B. cenocepacia AU24362, in broth microdilution assays. […] We revisited these measurements using broth microdilution assays following the Clinical & Laboratory Standards Institute (CLSI) standard.
Broth microdilution assays of the ubonodin variants were conducted using B. cenocepacia AU0756 and B. cenocepacia AU24362 with guidelines provided by the Clinical & Laboratory Standards Institute (CLSI).

[1] = system: RNA polymerase (RNAP) in E. coli MC1061; assay: High-throughput growth-based screen with NGS (enrichment value) for RNA polymerase inhibition; type: cell-based; parameters: key to Experimental observation (enrichment observed in the screen): Dropout: Many variants inhibit RNAP so strongly that they cannot be detected by NGS after IPTG induction (referred to as dropout variants); conditions: Table S4; variants whose MICs were tested
Procedure: The single mutant library was analyzed by NGS at multiple stages of sample preparation (Figure 2A) to track its evolution throughout the screen. Specifically, the frequency of each possible aa variant was computed at each stage by summing up counts for each distinct translated sequence and dividing by the total number of counts for all variants (eq S1, SI Methods). Since cells expressing an RNAP-inhibiting ubonodin variant will have growth defects relative to cells with a nontoxic variant, RNAP-inhibiting ubonodin variants are expected to decrease in frequency throughout the screen.
First, the naïve library (digested PCR products) was sequenced. These digested PCR products were cloned into the pUboABC backbone and transformed into a recA^– cloning strain. This plasmid library was sequenced again to capture any changes upon transformation of the library into E. coli. The change between the naïve library and the cloning transformation library was minimal (Figure S6A). This plasmid library was transformed into the screening strain MC1061, and the plasmid from resulting colonies was also sequenced. The library in MC1061 was grown up en masse in liquid culture to mid log phase, and a portion of the culture was plated. These colonies were scraped, then the plasmid was isolated and sequenced. Finally, the liquid culture was induced with IPTG, after which a portion of the culture was plated and the plasmid was isolated and sequenced. It is key to note that all samples from liquid cultures were plated prior to sequencing to ensure that only viable cells were sequenced. […] The rationale for sequencing at these five different stages was the possibility that leaky expression of uboA would affect the frequency of active mutants prior to IPTG induction. Indeed, we observed that the frequency of some uboA mutants dropped as soon as they were transformed into the screening strain MC1061 while the frequency of other mutants climbed (Figure 2B).
The behavior of the point variants (i.e., variants with a single aa substitution) was examined by calculating their enrichment values, the base-2 logarithm of the ratio of the variant’s frequency at a specific step of the screen to the variant’s frequency in the cloning transformation library (eq S3, Figure S6). The most relevant enrichment value for ubonodin activity is the comparison between the post-IPTG library and the cloning transformation library (Figure 2A). […] Many variants inhibit RNAP so strongly that they cannot be detected by NGS after IPTG induction (referred to as dropout variants). […] Variants with a stop codon mutation and variants containing an aa substitution at Tyr9 or Tyr27 (positions conserved in MccJ25 and shown to be crucial for RNAP inhibition, see Figure S7)[26] have positive enrichment values (1.2–1.7), serving as quality control for the screen (Figure 3A). Strikingly, 63% of point variants decreased in frequency, indicating a high tolerance to aa substitution. […] The positions with active variants are Asn11 through Ser24 in the loop and Asp3, Ser5, and Ala7 in the ring.
The single mutant and double mutant libraries were transformed into E. coli MC1061. Colonies were resuspended in media and subcultured into a larger culture. Aliquots of the cultures were sampled prior to and after induction with 10 μM IPTG and 100 μM IPTG and plated. After 16 h of incubation, the colonies were resuspended in media and plasmids were miniprepped.
Samples were PCR amplified with barcoded primers and combined such that double mutant library samples were over-represented compared to single mutant library samples to provide sufficient coverage of the larger double mutant library. Samples were sequenced using an Illumina MiSeq Micro 300nt and an Illumina NovaSeq 6000 Sequencing System. Downstream analysis of the data was conducted with Python, MATLAB, and R.
V to reduce genomic DNA contamination. One fragment was amplified with Xho I For Lib and a […]

CC[C@H](C)[C@H](NC(=O)[C@H](Cc1c[nH]cn1)NC(=O)[C@H](CCSC)NC(=O)[C@@H]1CCCN1C(=O)[C@H](CCCNC(=N)N)NC(=O)[C@H](CC(N)=O)NC(=O)[C@H](Cc1ccccc1)NC(=O)[C@H](Cc1ccc(O)cc1)NC(=O)[C@@H]1CCC(=O)NCC(=O)NCC(=O)N[C@@H](CC(=O)O)C(=O)NCC(=O)N[C@@H](CO)C(=O)N[C@@H]([C@@H](C)CC)C(=O)N[C@@H](C)C(=O)N1)C(=O)NCC(=O)N[C@@H](CC(=O)O)C(=O)N[C@@H](Cc1c[nH]c2ccccc12)C(=O)N[C@@H](CCC(N)=O)C(=O)N[C@H](C(=O)N[C@@H](CCSC)C(=O)N[C@@H](CC(=O)O)C(=O)N[C@@H](CO)C(=O)NCC(=O)N[C@@H](Cc1ccc(O)cc1)C(=O)N[C@@H](Cc1ccc(O)cc1)C(=O)NCC(=O)O)[C@@H](C)CC [H17G] (HELM PEPTIDE1{G.G.D.G.S.I.A.E.Y.F.N.R.P.M.H.I.G.D.W.Q.I.M.D.S.G.Y.Y.G}$PEPTIDE1,PEPTIDE1,1:R1-8:R3$$$V2.0)
Inhibits Growth (E. coli MC1061): Yes
B. cenocepacia AU0756 MIC (B. cenocepacia AU0756): 0.125 to 0.25 µM
MIC (B. cenocepacia AU0756): 0.125 to 0.25 µM
MIC (B. cenocepacia AU0756; broth microdilution, mass basis, strain not named in the sentence (values match AU0756)): 0.4 to 0.8 µg/mL
Experimental observation (enrichment observed in the screen) [1]: -6.5

CC[C@H](C)[C@@H]1NC(=O)[C@H](CO)NC(=O)CNC(=O)[C@H](CC(=O)O)NC(=O)CNC(=O)CNC(=O)CC[C@@H](C(=O)N[C@@H](Cc2ccc(O)cc2)C(=O)N[C@@H](Cc2ccccc2)C(=O)N[C@@H](CC(N)=O)C(=O)N[C@@H](CCCNC(=N)N)C(=O)N2CCC[C@H]2C(=O)N[C@@H](CCSC)C(=O)N[C@@H](Cc2c[nH]cn2)C(=O)N[C@@H](CC(=O)O)C(=O)N[C@@H](Cc2c[nH]cn2)C(=O)N[C@@H](CC(=O)O)C(=O)N[C@@H](Cc2c[nH]c3ccccc23)C(=O)N[C@@H](CCC(N)=O)C(=O)N[C@H](C(=O)N[C@@H](CCSC)C(=O)N[C@@H](CC(=O)O)C(=O)N[C@@H](CO)C(=O)NCC(=O)N[C@@H](Cc2ccc(O)cc2)C(=O)N[C@@H](Cc2ccc(O)cc2)C(=O)NCC(=O)O)[C@@H](C)CC)NC(=O)[C@H](C)NC1=O [I16D] (HELM PEPTIDE1{G.G.D.G.S.I.A.E.Y.F.N.R.P.M.H.D.H.D.W.Q.I.M.D.S.G.Y.Y.G}$PEPTIDE1,PEPTIDE1,1:R1-8:R3$$$V2.0)
Inhibits Growth (E. coli MC1061): Yes
B. cenocepacia AU0756 MIC (B. cenocepacia AU0756): 0.5 to 2 µM
Experimental observation (enrichment observed in the screen) [1]: -6.2

CC[C@H](C)[C@@H]1NC(=O)[C@H](CO)NC(=O)CNC(=O)[C@H](CC(=O)O)NC(=O)CNC(=O)CNC(=O)CC[C@@H](C(=O)N[C@@H](Cc2ccc(O)cc2)C(=O)N[C@@H](Cc2ccccc2)C(=O)N[C@@H](CC(N)=O)C(=O)N[C@@H](CCCNC(=N)N)C(=O)N2CCC[C@H]2C(=O)N[C@@H](CCSC)C(=O)N[C@@H](Cc2c[nH]cn2)C(=O)N[C@@H](CCC(=O)O)C(=O)N[C@@H](Cc2c[nH]cn2)C(=O)N[C@@H](CC(=O)O)C(=O)N[C@@H](Cc2c[nH]c3ccccc23)C(=O)N[C@@H](CCC(N)=O)C(=O)N[C@H](C(=O)N[C@@H](CCSC)C(=O)N[C@@H](C)C(=O)N[C@@H](CO)C(=O)NCC(=O)N[C@@H](Cc2ccc(O)cc2)C(=O)N[C@@H](Cc2ccc(O)cc2)C(=O)NCC(=O)O)[C@@H](C)CC)NC(=O)[C@H](C)NC1=O [I16E D23A] (HELM PEPTIDE1{G.G.D.G.S.I.A.E.Y.F.N.R.P.M.H.E.H.D.W.Q.I.M.A.S.G.Y.Y.G}$PEPTIDE1,PEPTIDE1,1:R1-8:R3$$$V2.0)
Inhibits Growth (E. coli MC1061): Yes
B. cenocepacia AU0756 MIC (B. cenocepacia AU0756): 2 to 8 µM
Experimental observation (enrichment observed in the screen) [1]: Dropout

CC[C@H](C)[C@@H]1NC(=O)[C@H](CO)NC(=O)CNC(=O)[C@H](CC(=O)O)NC(=O)CNC(=O)CNC(=O)CC[C@@H](C(=O)N[C@@H](Cc2ccc(O)cc2)C(=O)N[C@@H](Cc2ccccc2)C(=O)N[C@@H](CC(N)=O)C(=O)N[C@@H](CCCNC(=N)N)C(=O)N2CCC[C@H]2C(=O)N[C@@H](CCSC)C(=O)N[C@@H](Cc2c[nH]cn2)C(=O)N[C@@H](CCC(=O)O)C(=O)N[C@@H](Cc2c[nH]cn2)C(=O)N[C@@H](CC(=O)O)C(=O)N[C@@H](Cc2c[nH]c3ccccc23)C(=O)N[C@@H](CCC(N)=O)C(=O)N[C@H](C(=O)N[C@@H](CCSC)C(=O)N[C@@H](CC(=O)O)C(=O)N[C@@H](CO)C(=O)NCC(=O)N[C@@H](Cc2ccc(O)cc2)C(=O)N[C@@H](Cc2ccc(O)cc2)C(=O)NCC(=O)O)[C@@H](C)CC)NC(=O)[C@H](C)NC1=O [I16E] (HELM PEPTIDE1{G.G.D.G.S.I.A.E.Y.F.N.R.P.M.H.E.H.D.W.Q.I.M.D.S.G.Y.Y.G}$PEPTIDE1,PEPTIDE1,1:R1-8:R3$$$V2.0)
Inhibits Growth (E. coli MC1061): Yes
B. cenocepacia AU0756 MIC (B. cenocepacia AU0756): 0.5 to 1 µM
Experimental observation (enrichment observed in the screen) [1]: -7.5
